Reference: US9474758B2, “Thienopyrimidinedione derivatives as TRPA1 modulators” (Glenmark Pharmaceuticals S.A., priority 2009, dated 2016)

Key:
[1] = target: T1, Rat TRPA1 expressing CHO cells (Rattus norvegicus, UniProt Q6RI86); assay: 45Calcium uptake assay, inhibition of AITC induced calcium uptake (rat); type: cell-based; details: rat TRPA1 CHO cells, AITC 10 μM; for inhibition at 1 µM: compound 1.0 μM, read-out: Percentage inhibition at 1.0 μM; for inhibition at 10 µM: compound 10.0 μM, read-out: Percentage inhibition at 10.0 μM
T1 construct: expressed in transfected cells; host or cells: CHO cells (Zeocin selection)
T1 sequence (Q6RI86 whole entry): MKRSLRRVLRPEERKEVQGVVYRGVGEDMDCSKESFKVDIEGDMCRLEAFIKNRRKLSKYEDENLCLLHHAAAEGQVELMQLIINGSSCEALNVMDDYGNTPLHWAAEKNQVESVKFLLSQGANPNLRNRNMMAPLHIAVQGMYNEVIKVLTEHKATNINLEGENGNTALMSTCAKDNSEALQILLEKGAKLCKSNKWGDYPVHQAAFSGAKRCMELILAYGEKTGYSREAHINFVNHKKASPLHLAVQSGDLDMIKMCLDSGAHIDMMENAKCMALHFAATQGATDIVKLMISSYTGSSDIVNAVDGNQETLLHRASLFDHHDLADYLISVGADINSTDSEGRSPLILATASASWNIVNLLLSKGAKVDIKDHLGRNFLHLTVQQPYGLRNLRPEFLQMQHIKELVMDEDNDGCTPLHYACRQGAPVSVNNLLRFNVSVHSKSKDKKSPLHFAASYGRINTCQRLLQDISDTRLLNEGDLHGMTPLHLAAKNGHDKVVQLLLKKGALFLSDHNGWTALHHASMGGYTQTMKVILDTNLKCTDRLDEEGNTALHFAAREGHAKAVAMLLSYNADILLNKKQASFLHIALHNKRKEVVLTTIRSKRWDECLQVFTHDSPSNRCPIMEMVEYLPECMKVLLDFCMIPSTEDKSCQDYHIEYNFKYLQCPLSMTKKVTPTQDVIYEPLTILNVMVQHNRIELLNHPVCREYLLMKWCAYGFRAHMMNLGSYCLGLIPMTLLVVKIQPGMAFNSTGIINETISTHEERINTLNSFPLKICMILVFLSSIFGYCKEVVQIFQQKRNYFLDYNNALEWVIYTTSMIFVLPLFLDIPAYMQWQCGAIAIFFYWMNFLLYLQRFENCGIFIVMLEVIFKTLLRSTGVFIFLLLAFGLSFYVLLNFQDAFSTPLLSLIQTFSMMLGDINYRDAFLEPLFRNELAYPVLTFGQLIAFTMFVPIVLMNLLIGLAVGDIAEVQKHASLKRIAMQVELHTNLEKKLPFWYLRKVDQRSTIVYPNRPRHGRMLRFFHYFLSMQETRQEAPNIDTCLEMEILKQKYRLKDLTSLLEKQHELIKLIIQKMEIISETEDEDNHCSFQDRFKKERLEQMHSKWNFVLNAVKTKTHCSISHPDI
Procedure, shortened: (§1)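 CHO cells expressing rat or human TRPA1 were pre-treated with compound for 10 min, then given AITC (30 μM human, 10 μM rat) plus 5 μCi/ml 45Ca2+ for 3 min; final DMSO 0.5%. Lysate radioactivity was counted by scintillation. IC50 came from nonlinear regression of concentration-response curves as % of maximal response.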

[2] = target: T2, Human TRPA1 expressing CHO cells (Homo sapiens, UniProt O75762); assay: 45Calcium uptake assay, inhibition of AITC induced calcium uptake (human); type: cell-based; details: human TRPA1 CHO cells, AITC 30 μM; for inhibition at 1 µM: compound 1.0 μM, read-out: Percentage inhibition at 1.0 μM; for inhibition at 10 µM: compound 10.0 μM, read-out: Percentage inhibition at 10.0 μM; for IC50: read-out: Human IC50 value (Range)
T2 construct: expressed in transfected cells; host or cells: CHO cells (G-418 selection)
T2 sequence (O75762 whole entry): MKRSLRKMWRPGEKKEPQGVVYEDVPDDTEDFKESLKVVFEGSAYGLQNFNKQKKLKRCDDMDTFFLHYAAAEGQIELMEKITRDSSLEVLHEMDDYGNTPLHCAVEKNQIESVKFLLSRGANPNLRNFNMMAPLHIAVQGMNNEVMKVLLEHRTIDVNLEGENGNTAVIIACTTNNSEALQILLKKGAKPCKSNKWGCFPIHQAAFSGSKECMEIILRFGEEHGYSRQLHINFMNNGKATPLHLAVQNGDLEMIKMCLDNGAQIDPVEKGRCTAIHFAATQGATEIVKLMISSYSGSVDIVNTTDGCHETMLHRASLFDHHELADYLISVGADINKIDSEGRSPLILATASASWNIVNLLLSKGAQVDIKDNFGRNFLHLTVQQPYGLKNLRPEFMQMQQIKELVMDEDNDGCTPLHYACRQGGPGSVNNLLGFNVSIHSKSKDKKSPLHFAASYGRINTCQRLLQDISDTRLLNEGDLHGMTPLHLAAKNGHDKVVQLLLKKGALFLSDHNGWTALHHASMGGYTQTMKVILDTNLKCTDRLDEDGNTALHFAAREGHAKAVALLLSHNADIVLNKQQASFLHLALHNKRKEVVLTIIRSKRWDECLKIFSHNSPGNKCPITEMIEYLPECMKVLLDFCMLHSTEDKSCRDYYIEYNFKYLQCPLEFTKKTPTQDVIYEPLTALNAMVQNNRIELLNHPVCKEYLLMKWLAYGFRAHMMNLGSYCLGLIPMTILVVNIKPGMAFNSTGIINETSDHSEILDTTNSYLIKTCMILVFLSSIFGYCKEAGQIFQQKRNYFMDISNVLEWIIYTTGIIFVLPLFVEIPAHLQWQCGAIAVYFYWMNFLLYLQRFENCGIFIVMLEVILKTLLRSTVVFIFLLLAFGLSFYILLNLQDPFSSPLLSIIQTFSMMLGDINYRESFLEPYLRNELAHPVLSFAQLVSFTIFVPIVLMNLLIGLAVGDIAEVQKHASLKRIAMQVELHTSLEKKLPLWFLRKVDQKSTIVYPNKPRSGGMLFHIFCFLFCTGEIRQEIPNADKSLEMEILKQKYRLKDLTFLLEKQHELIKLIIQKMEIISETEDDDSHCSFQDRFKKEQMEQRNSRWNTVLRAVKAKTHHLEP
Procedure, shortened: as §1

**Q.** Which inhibition at 1 µM [1] does the source give for `Cn1c(=O)c2c(CC(=O)Nc3nc(-c4cc(F)c(OC(F)F)c(F)c4)cs3)scc2n(C)c1=O` [Example 59, N-{4-[4-(Difluoromethoxy)-3,5-difluorophenyl]-1,3-thiazol-2-yl}-2-(1,3-dimethyl-2,4-dioxo-1,2,3,4-tetrahydrothieno[3,4-d]pyrimidin-5-yl)acetamide] here?
**A.** Its inhibition at 1 µM is 12.7%.

**Q.** And the inhibition at 10 µM [1]?
**A.** Its inhibition at 10 µM is 87.6%.

**Q.** What about the inhibition at 1 µM [2] of the same compound?
**A.** Its inhibition at 1 µM is 89.3%.

**Q.** And the inhibition at 10 µM [2]?
**A.** Its inhibition at 10 µM is 91.4%.

**Q.** What about the IC50 [2] of the same compound?
**A.** Its IC50 is less than 50 nM.

**Q.** With `Cn1c(=O)c2c(CC(=O)Nc3nc(-c4cc(F)c(OCC(F)(F)F)c(F)c4)cs3)scc2n(C)c1=O` [Example 60, N-{4-[3,5-Difluoro-4-(2,2,2-trifluoro-ethoxy)phenyl]-1,3-thiazol-2-yl}-2-(1,3-dimethyl-2,4-dioxo-1,2,3,4-tetrahydrothieno[3,4-d]pyrimidin-5-yl)acetamide] as the compound, how does the inhibition at 1 µM [1] read?
**A.** The inhibition at 1 µM was 21%.

**Q.** What about the inhibition at 10 µM [1] of the same compound?
**A.** The inhibition at 10 µM was 95.9%.

**Q.** And the inhibition at 1 µM [2]?
**A.** The inhibition at 1 µM was 98%.

**Q.** And the inhibition at 10 µM [2]?
**A.** The inhibition at 10 µM was 97.4%.

**Q.** And the IC50 [2]?
**A.** Its IC50 is less than 50 nM.
